In patent US4822799A, “Pyrazolopyridine analogs of mevalonolactone and derivatives thereof useful for inhibiting cholesterol biosynthesis in mammals” (Sandoz Pharm. Corp., priority 1988, dated 1989):

How the values were obtained:
[1] = system: 3β-hydroxysterol synthesis; experiment: Test B. In Vivo Cholesterol Biosynthesis Inhibition Test; conditions: Rattus norvegicus, po, rats, orally administered, 0.1-200 mg/kg. body weight, read-out: ED50 (50% inhibition of 3β-hydroxysterol synthesis)
Description: Test B. In Vivo Cholesterol Biosynthesis Inhibition Test:
In this test the rats are orally administered the test substance (compound of Formula I) at a dose of 0.1-200 mg/kg. body weight. The obtained ED50 is the dose of the test substance observed or calculated to produce a 50% inhibition of 3β-hydroxysterol synthesis.

[2] = target: T1, 3-hydroxy-3-methylglutaryl coenzyme A (HMG-CoA) reductase (Rattus norvegicus, UniProt P51639); experiment: Test A. In Vitro Microsomal Assay of HMG-CoA Reductase Inhibition; assay type: biochemical; conditions: test substance 0.001-2,000 μmolar, read-out: IC50 (50% inhibition of HMG-CoA reductase activity)
T1 construct: from tissue; host or cells: liver microsomes of Sprague-Dawley rats (tissue and species from own knowledge of the cited documents)
T1 sequence (P51639 1-887): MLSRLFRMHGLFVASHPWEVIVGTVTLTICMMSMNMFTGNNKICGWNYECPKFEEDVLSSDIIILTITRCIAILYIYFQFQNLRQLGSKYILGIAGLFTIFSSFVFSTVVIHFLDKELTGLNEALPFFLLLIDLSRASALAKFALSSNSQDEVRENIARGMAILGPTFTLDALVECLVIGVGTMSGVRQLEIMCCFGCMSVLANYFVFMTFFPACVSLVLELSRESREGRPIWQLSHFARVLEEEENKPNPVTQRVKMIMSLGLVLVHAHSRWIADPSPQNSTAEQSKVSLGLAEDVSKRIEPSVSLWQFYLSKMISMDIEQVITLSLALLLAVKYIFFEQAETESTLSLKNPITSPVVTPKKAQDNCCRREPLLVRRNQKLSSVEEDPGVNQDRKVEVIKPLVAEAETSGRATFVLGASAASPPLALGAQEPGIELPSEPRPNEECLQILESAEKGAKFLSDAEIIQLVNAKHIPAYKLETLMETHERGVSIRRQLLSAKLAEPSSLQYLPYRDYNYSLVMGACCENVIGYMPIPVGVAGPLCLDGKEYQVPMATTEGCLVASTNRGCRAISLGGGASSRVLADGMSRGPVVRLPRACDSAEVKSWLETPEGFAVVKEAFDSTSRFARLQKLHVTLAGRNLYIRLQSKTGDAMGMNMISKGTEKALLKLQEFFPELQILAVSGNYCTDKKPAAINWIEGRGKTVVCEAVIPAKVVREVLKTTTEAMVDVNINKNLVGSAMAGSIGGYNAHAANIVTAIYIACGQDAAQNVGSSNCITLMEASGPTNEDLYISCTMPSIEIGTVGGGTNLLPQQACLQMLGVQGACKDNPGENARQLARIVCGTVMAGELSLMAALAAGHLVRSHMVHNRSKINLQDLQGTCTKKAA
Description: Test A. In Vitro Microsomal Assay of HMG-CoA Reductase Inhibition:
This test is carried out precisely as described in column 53 of U.S. Pat. No. 4,613,610 and on page 30 of World (PCT) Published patent application No. 84/02131, both of which are hereby incorporated by reference as if set forth herein in their entirety. The concentration of the test substance (compound of Formula I) in the assay system is 0.001-2,000 μmolar. The obtained IC50 is the concentration of the test substance in the assay system observed or calculated to produce a 50% inhibition of HMG-CoA reductase activity.

Row | IC50 [2] [µM] | Compound | ED50 [1] [mg/kg]
1 | – | CC[C@H](C)C(=O)O[C@H]1CCC=C2C=C[C@H](C)[C@H](CC[C@@H]3C[C@@H](O)CC(=O)O3)[C@H]21 [Compactin] | 3.5
2 | 0.01 | Cc1nn(C)c2nc(C(C)C)c(/C=C/[C@@H](O)C[C@@H](O)CC(=O)O)c(-c3ccc(F)cc3)c12 [Example 2, Sodium (3R,5S)-(E)-3,5-dihydroxy-7-[1',3'-dimethyl-4'-(4"-fluorophenyl)-6'-(1"-methylethyl)-1H-pyrazolo[3,4-b]pyrid-5'-yl]hept-6-enoate] | –
3 | – | CC[C@H](C)C(=O)O[C@H]1C[C@@H](C)C=C2C=C[C@H](C)[C@H](CC[C@@H]3C[C@@H](O)CC(=O)O3)[C@H]21 [Mevinolin] | 0.38
